Measured values from US7342137B1, “Cyclohexenone compounds from Antrodia camphorata and application thereof” (Golden Biotechnology Corporation, priority 2007, dated 2008).

How the values were obtained:
[1] = tested on: human prostate cancer cells, LNCaP; assay: In vitro survival assay (MTT), prostate cancer cells LNCaP; format: cell-based; conditions: 48 hours incubation
Procedure: The NCI anti-cancer drug screen model was also adopted to test the anti-cancer effect of the compound isolated from example 1 in the present invention. The isolated compound of 4-hydroxy-2,3-dimethoxy-6-methyl-5(3,7,11-trimethyl-dodeca-2,6,10-trienyl)-cyclohex-2-enone from example 1 was added into the culture media of human prostate cancer cells, LNCaP or DU-145, for tumor cell survival assay.
The human […] cells, LNCaP and DU-145, were separately cultivated in media containing fetal calf serum for 24 hours. The proliferated cells were washed once with PBS, then treated with 1× trypsin-EDTA and centrifuged at 1200 rpm for 5 minutes. The supernatant was discarded and the cell pellet was resuspended in 10 ml of fresh culture medium by gently shaking. The cells were placed in a 96-well plate. Ethanol extracts of Antrodia camphorata (the control group, total extracts of Antrodia camphorata without purification) or 4-hydroxy-2,3-dimethoxy-6-methyl-5(3,7,11-trimethyl-dodeca-2,6,10-trienyl)-cyclohex-2-enone (the experiment group) were added into each of the 96 wells at the following concentrations: 30, 10, 3, 1, 0.3, 0.1 and 0.03 μg/ml, respectively. The cells were incubated at 37° C. in a 5% CO2 incubator for 48 hours. […] The plates were read on an ELISA reader at wavelength of 570 nm to determine the survival rates.

[2] = tested on: human breast-cancer cells, MCF-7; assay: In vitro survival assay (MTT), breast cancer cells MCF-7; format: cell-based; conditions: MCF7, 48 hours incubation
Procedure: The NCI anti-cancer drug screen model was adopted to test the anti-cancer effect of the compound from example 1 in the invention. The isolated compound of 4-hydroxy-2,3-dimethoxy-6-methyl-5(3,7,11-trimethyl-dodeca-2,6,10-trienyl)-cyclohex-2-enone from example 1 was added into the culture media of human breast-cancer cells, MCF-7 or MDA-MB-231, for tumor cell survival assay. This assay can be tested with 3-[4,5-dimethylthiazol-2-yl]2,5-diphenyltetrazolium bromide (MTT) assay, which is commonly used to determine cell proliferation, percent of viable cells, and cytotoxicity. MTT is a yellow dye, which can be absorbed by the living cells and be reduced to purplish blue formazan crystals by succinate tetrazolium reductase in mitochondria. Formazan formation can therefore be used to assess and determine the survival rate of cells.
The human breast-cancer cells, MCF-7 and MDA-MB-231 were separately cultivated in media containing fetal calf serum for 24 hours. The proliferated cells were washed once with PBS, then treated with 1× trypsin-EDTA and centrifuged at 1200 rpm for 5 minutes. The supernatant was discarded and the cell pellet was resuspended in 10 ml of fresh culture medium by gently shaking. The cells were placed in a 96-well plate. […] The plates were read on an ELISA reader at wavelength of 570 nm to determine the survival rates.

[3] = tested on: Human low density lipoprotein (LDL); assay: In vitro antioxidant activity study (Cu2+-induced LDL oxidation, diene formation); format: biochemical; conditions: 40 μg/mL formula 2; for Capacity values: capacity value 1 = 2 μM Trolox, antioxidant ability when larger than 0.5
Procedure: Human low density lipoprotein (LDL) oxidated with copper ion (Cu^2+) has been widely employed to assess antioxidant activities of samples to be assayed. Antioxidant activity of a sample is determined by the diene contents of LDL after oxidation and expressed in Trolox equivalents by using a standard curve calculated from the water-soluble vitamin E analogue Trolox standards (the antioxidant capacity value of 1 is expressed in terms of 2 μM of Trolox).
The following solutions were prepared firstly: double distilled water (the negative control group), 5 mM sodium phosphate buffer (SPB), 1 μM and 2 μM Trolox solution (the positive control group), and 40 μg/ml 4-hydroxy-2,3-dimethoxy-6-methyl-5(3,7,11-trimethyl-dodeca-2,6,10-trienyl)-cyclohex-2-enone isolated from example 1. The concentration of LDL cholesterol (LDL-C) was determined using enzyme reaction method, which was diluted to 0.1-0.25 mg/ml with 5 mM SPB. One hundred μl of the LDL was added into each well of a 96-well quartz plate, followed by addition of the abovementioned Trolox and the isolated compound from example 1. Standardized oxidizing agent CuSO4 was supplemented to induce oxidation at a final concentration of 5 μM in each 250 μl well. The plate was read on an ELISA reader at wavelength of 232 nm at 37 °C for 12 hours. The sampling time was 15 min.

[4] = tested on: human hepatic cancer cells, Hep G2; assay: In vitro Taxol add-on study (MTT), Hep G2; format: cell-based; conditions: Homo sapiens, HepG2, 0.0017 μg/ml Taxol + formula 2
Procedure: The experiment was also carried out according to NCI anti-cancer drug screen in vitro model. The human hepatic cancer cells, Hep 3B and Hep G2 […] were separately cultivated in media containing fetal calf serum for 24 hours. The proliferated cells were washed once with PBS, then treated with 1× trypsin-EDTA and centrifuged at 1200 rpm for 5 minutes. The supernatant was discarded and the cell pellet was resuspended in 10 ml of fresh culture medium by gently shaking. The Hep 3B cells were treated with 0.0043 μg/ml of Lovastatin for 72 hours and Hep G2 cells were treated with 0.0017 μg/ml of Taxol for 72 hours before placing in a 96-well plate. 4-hydroxy-2,3-dimethoxy-6-methyl-5(3,7,11-trimethyl-dodeca-2,6,10-trienyl)-cyclohex-2-enone obtained from example 1 were added respectively into each of the 96 wells at the following concentrations: 0 μg/ml (the control group); 30, 10, 3, 1, 0.3, 0.1 and 0.03 μg/ml (the experiment group). The cells were incubated at 37° C. in a 5% CO2 incubator for 48 hours. MTT was added in a concentration of 2.5 mg/ml into each well in dark and reacted for 4 hours, followed by the addition of 100 μl of lysis buffer to stop the reaction. The plates were read on an ELISA reader at wavelength of 570 nm to determine the survival rates.

COC1=C(OC)C(O)C(C/C=C(\C)CC/C=C(\C)CCC=C(C)C)C(C)C1=O (stereo not shown) [formula 2, 4-hydroxy-2,3-dimethoxy-6-methyl-5(3,7,11-trimethyl-dodeca-2,6,10-trienyl)-cyclohex-2-enone]
IC50 [1]: 2.38 µg/mL | IC50 [2]: 0.852 µg/mL | Tlag ([3]; LDL oxidised with 5 μM CuSO4): 439 min | Capacity values [3]: 1.30 | Capacity values ([3]; listed as 4-hydroxy-2,3-dimethoxy-6-methyl-5(3,7,11-trimethyl-dodeca-2,6,10-trienyl)-cyclo): 1.3 | ΔTlag ([3]; difference between Tlag and Tlag0 (H2O)): 208 min | IC50 [4]: 8 ng/mL
